Entries after “also recorded” stand apart in the source; their conditions may differ.
Columns and labels:
[1] = biological target: SRC (Homo sapiens (Human), UniProt P12931); experiment: Tyrosine kinase SRC counter-screen; assay type: biochemical
[2] = biological target: PfCDPK1 (Plasmodium falciparum (isolate 3D7), UniProt P62344); experiment: biochemical; details: read-out: PfCDPK1 (% inhibition @ 3 uM)
[3] = biological target: PfCDPK4 (Plasmodium falciparum (isolate 3D7), UniProt Q8IBS5); experiment: biochemical; details: read-out: PfCDPK4 (% inhibition @ 3 uM)
[4] = biological target: ABL (Homo sapiens (Human), UniProt P00519)
[5] = biological target: TgCDPK1 (Toxoplasma gondii, UniProt Q9BJF5); assay type: biochemical
[6] = biological target: CpCDPK1 (Cryptosporidium parvum (strain Iowa II), UniProt A3FQ16); assay type: biochemical
[7] = system: C. parvum; experiment: C. parvum infection of HCT-8 cells (rRNA reverse transcriptase real time PCR); assay type: cell-based, Cryptosporidium parvum; details: inhibitor at time of infection and 1 hour after infection
[8] = system: glioma derived (SF539); experiment: Growth inhibition / toxicity in human cell line SF539
[9] = system: C. parvum; experiment: Immunosuppressed (SCID-beige) mouse C. parvum model, stool qRT-PCR; assay type: in vivo, Cryptosporidium parvum; details: oral gavage once a day, days 3-7 and 10-14; 29 and 150 50 mg/kg/day, Paromomycin 2 g/kg/day
Procedure: Shown are mean of the parasite numbers detected in 25 mg of stool from each mouse, by qRT-PCR.

[10] = system: P. falciparum; experiment: P. falciparum NF54 gametocyte exflagellation with compound in blood; assay type: cell-based, Plasmodium falciparum
[11] = system: P. berghei expressing PfCDPK4-2x-myc; set-up: species or system Plasmodium berghei; details: in vivo
[12] = system: P. berghei; set-up: species or system Plasmodium berghei; details: in vivo
[13] = system: human promyelocytic leukemia (HL-60); experiment: Growth inhibition / toxicity in human cell line HL-60; details: HL60, 10 μM
[14] = system: human lymphocyte (CRL8155); experiment: Growth inhibition / toxicity in human cell line CRL8155; details: CRL8155, 10 μM

SMILES | inhibition at 3 µM [2] [%] | inhibition at 3 µM [3] [%] | also measured
Nc1ncnc2c1c(Cc1cccc3ccccc13)nn2CC1CCNCC1 [Compound 5h, 3-(naphthalen-1-ylmethyl)-1-(piperidin-4-ylmethyl)-1H-pyrazolo[3,4-d]pyrimidin-4-amine] | 66 | 95 | inhibition of SRC (in words) [1]: reduced potency; inhibition of ABL (in words) [4]: reduced potency
CC(C)(C)n1nc(-c2ccc3ccccc3c2)c2c(N)ncnc21 [Compound 2, 1-tert-butyl-3-(naphthalen-2-yl)-1H-pyrazolo[3,4-d]pyrimidin-4-amine] |  |  | inhibition of TgCDPK1 (in words) [5]: most potent inhibitor; inhibition of CpCDPK1 (in words) [6]: most potent inhibitor; C. parvum parasite levels / proliferation in HCT-8 cells [7]: most potent effect
CC(C)n1nc(-c2cnc3ccccc3c2)c2c(N)ncnc21 [Compound 7t, 1-isopropyl-3-(quinolin-3-yl)-1H-pyrazolo[3,4-d]pyrimidin-4-amine] | 65 | 83 | inhibition of TgCDPK1 (in words) [5]: potent inhibitors of both enzymes; inhibition of CpCDPK1 (in words) [6]: potent inhibitors of both enzymes
Cc1cc(-c2nn(C(C)C)c3ncnc(N)c23)ccc1F [Compound 7i, 3-(4-fluoro-3-methylphenyl)-1-isopropyl-1H-pyrazolo[3,4-d]pyrimidin-4-amine] | 79 | 79 | inhibition of CpCDPK1 (in words) [6]: potent against both enzymes
CC(C)n1nc(-c2cccc(Cl)c2)c2c(N)ncnc21 [Compound 7b, 3-(3-chlorophenyl)-1-isopropyl-1H-pyrazolo[3,4-d]pyrimidin-4-amine] | 72 | 85 | relative potency TgCDPK1 versus CpCDPK1 (in words) [5]: more potent against TgCDPK1 than CpCDPK1
CC(C)n1nc(-c2ccc(Cl)cc2)c2c(N)ncnc21 [Compound 7a, 3-(4-chlorophenyl)-1-isopropyl-1H-pyrazolo[3,4-d]pyrimidin-4-amine] | 97 | 86 | relative potency TgCDPK1 versus CpCDPK1 (in words) [5]: more potent against TgCDPK1 than CpCDPK1
Nc1ncnc2c1c(-c1ccc3cc(OCc4ccccc4)ccc3c1)nn2CC1CCNCC1 [Compound 34, 3-(6-(benzyloxy)naphthalen-2-yl)-1-(piperidin-4-ylmethyl)-1H-pyrazolo[3,4-d]pyrimidin-4-amine] |  | 97 | Cell Toxicity LD50 SF539 [8]: 6 µM
NC[C@@H]1O[C@H](O[C@H]2[C@@H](O)[C@H](O[C@@H]3[C@@H](O)[C@H](N)C[C@H](N)[C@H]3O[C@H]3O[C@H](CO)[C@@H](O)[C@H](O)[C@H]3N)O[C@@H]2CO)[C@H](N)[C@@H](O)[C@@H]1O [Paromomycin, reference compound] |  |  | parasites in stool at the end of treatment [9]: not detected; rebound of parasite burden after treatment [9]: quickly rebounded
COc1ccc(-c2nn(C(C)C)c3ncnc(N)c23)cc1C [Compound 7m, 1-isopropyl-3-(4-methoxy-3-methylphenyl)-1H-pyrazolo[3,4-d]pyrimidin-4-amine] | 77 | 85 | inhibition of CpCDPK1 (in words) [6]: potent against both enzymes
CC(C)n1nc(-c2ccc(Cl)c(Cl)c2)c2c(N)ncnc21 [Compound 7c, 3-(3,4-dichlorophenyl)-1-isopropyl-1H-pyrazolo[3,4-d]pyrimidin-4-amine] | 93 | 97 | inhibition of CpCDPK1 (in words) [6]: potent against both enzymes
COc1cc(-c2nn(C(C)C)c3ncnc(N)c23)cc(OC)c1OC [Compound 7l, 1-isopropyl-3-(3,4,5-trimethoxyphenyl)-1H-pyrazolo[3,4-d]pyrimidin-4-amine] |  |  | relative potency TgCDPK1 versus CpCDPK1 (in words) [5]: equipotent or slightly selective for CpCDPK1
CC(C)c1ccc(-c2nn(C(C)C)c3ncnc(N)c23)cc1 [Compound 7d, 1-isopropyl-3-(4-isopropylphenyl)-1H-pyrazolo[3,4-d]pyrimidin-4-amine] | 90 | 80 | relative potency TgCDPK1 versus CpCDPK1 (in words) [5]: more potent against TgCDPK1 than CpCDPK1
COc1ccc(-c2nn(C(C)C)c3ncnc(N)c23)cc1OC [Compound 7k, 3-(3,4-dimethoxyphenyl)-1-isopropyl-1H-pyrazolo[3,4-d]pyrimidin-4-amine] | 93 | 43 | inhibition of CpCDPK1 (in words) [6]: potent against both enzymes
CSc1cccc(-c2nn(C(C)C)c3ncnc(N)c23)c1 [Compound 7ab, 1-isopropyl-3-(3-(methylthio)phenyl)-1H-pyrazolo[3,4-d]pyrimidin-4-amine] |  |  | relative potency TgCDPK1 versus CpCDPK1 (in words) [5]: more potent against TgCDPK1 than CpCDPK1
CCOc1ccc2cc(-c3nn(CC4CCN(C)CC4)c4ncnc(N)c34)ccc2c1 [Compound 150, 3-(6-ethoxynaphthalen-2-yl)-1-((1-methylpiperidin-4-yl)methyl)-1H-pyrazolo[3,4-d]pyrimidin-4-amine] |  |  | EC50 ([10]; Plasmodium falciparum, read-out: Parasite Proliferation Assay EC50 P. falciparum Exflaggelation): 50 nM; parasites in stool at the end of treatment [9]: not detected; rebound of parasite burden after treatment [9]: not
CCOc1ccc2cc(-c3nn(CC4CCNCC4)c4ncnc(N)c34)ccc2c1 [Compound 29, 3-(6-ethoxynaphthalen-2-yl)-1-(piperidin-4-ylmethyl)-1H-pyrazolo[3,4-d]pyrimidin-4-amine] | 97 |  | duration of complete suppression of male gametocyte differentiation to exflagellating units [11]: 14 h; exflagellation in blood samples from treated mice [11]: some exflagellation was observed; formation of oocysts in A. stephensi [12]: completely blocked; P. falciparum exflagellation ([10]; 1 and 3 μM): complete suppression; also recorded: suppressed completely; also recorded: prevented the exflagellation of microgametes; parasites in stool at the end of treatment [9]: not detected; rebound of parasite burden after treatment [9]: slowly
CC(C)(C)n1nc(-c2ccc3ccccc3c2)c2c(N)ncnc21 [NA-PP2, reference compound] |  |  | formation of oocysts in A. stephensi [12]: hundreds of oocysts per mosquito
Cc1cccc2[nH]c(-c3nn(C(C)C)c4ncnc(N)c34)cc12 [Compound 25, 1-isopropyl-3-(4-methyl-1H-indol-2-yl)-1H-pyrazolo[3,4-d]pyrimidin-4-amine] |  | 92 | Cell Toxicity HL60, % at 10 μM [13]: 47% toxicity at; Cell Toxicity CRL8155, % at 10 μM [14]: 38% toxicity at
CC(C)n1nc(-c2cc3c(Cl)cccc3[nH]2)c2c(N)ncnc21 [Compound 26, 3-(4-chloro-1H-indol-2-yl)-1-isopropyl-1H-pyrazolo[3,4-d]pyrimidin-4-amine] |  | 93 | Cell Toxicity HL60, % at 10 μM [13]: 45% toxicity at; Cell Toxicity CRL8155, % at 10 μM [14]: 38% toxicity at
Cn1ncc2cc(-c3nn(C(C)(C)C)c4ncnc(N)c34)ccc21 [Compound 142] | 98 | 97 | 
CC(C)(C)c1nc(-c2ccc3ccccc3c2)c2c(N)nccn12 [Compound 84] | 101 | 99 | 
COc1cc2ccccc2cc1-c1nn(C(C)C)c2ncnc(N)c12 [Compound 7s, 1-isopropyl-3-(3-methoxynaphthalen-2-yl)-1H-pyrazolo[3,4-d]pyrimidin-4-amine] | 53 | 20 | 
CC(C)(C)n1ncc2c(N)ncnc21 [Compound 123] | 62 | 4 | 
COc1cc(COc2cccc(-c3nn(C(C)C)c4ncnc(N)c34)c2)cc(OC)c1 [Compound 22, 3-(3-(3,5-dimethoxybenzyloxy)phenyl)-1-isopropyl-1H-pyrazolo[3,4-d]pyrimidin-4-amine] | 71 | 9 | 
CC(C)(C)n1nc(-c2ccc(NC(=O)Cc3ccccc3)cc2)c2c(N)ncnc21 [Compound 66, N-(4-(4-amino-1-tert-butyl-1H-pyrazolo[3,4-d]pyrimidin-3-yl)phenyl)-2-phenylacetamide] | 100 | 77 | 
Cc1ccccc1COc1ccc2cc(-c3nn(C(C)C)c4ncnc(N)c34)ccc2c1 [Compound 49, 1-isopropyl-3-(6-(2-methylbenzyloxy)naphthalen-2-yl)-1H-pyrazolo[3,4-d]pyrimidin-4-amine] | 88 | 22 | 
Nc1ncnc2c1cnn2CC1CCNCC1 [Compound 99] | 70 | 5 | 
CC(C)COc1ccc2cc(-c3nn(CC4CCNCC4)c4ncnc(N)c34)ccc2c1 [Compound 44, 3-(6-isobutoxynaphthalen-2-yl)-1-(piperidin-4-ylmethyl)-1H-pyrazolo[3,4-d]pyrimidin-4-amine] | 100 | 97 | 

Reference: patent publication US11247972B2, “Compositions and methods for treating toxoplasmosis, cryptosporidiosis, and other apicomplexan protozoan related diseases” (University of Washington through its Center for …, priority 2010, dated 2022)
